According to patent US20070249607A1, “NK-1 AND SEROTONIN TRANSPORTER INHIBITORS” (Bristol-Myers Squibb Company, priority 2006, published 2007):
Like-named read-outs stand apart in the source and are kept apart here.

Assays:
[1] = target: T1, neurokinin-1 (NK-1) receptor (Homo sapiens, UniProt P25103); experiment: NK-1 Binding assay ([125I] Substance P competition, U373 cell membranes); conditions: U373 membranes, [125I] Substance P displacement, read-out: NK-1 IC50
T1 construct: a human glioblastoma-astrocytoma cell line that endogenously expresses the neurokinin-1 (NK-1) receptor; endogenous in cells; host or cells: U373 human glioblastoma-astrocytoma cells (membranes)
Experimental: NK-1 Binding assay. U373 cells, a human glioblastoma-astrocytoma cell line that endogenously expresses the neurokinin-1 (NK-1) receptor, were grown in a monolayer culture at 37° C. in 5% CO2 and fed with Minimum Essential Medium (MEM) supplemented with 10% fetal bovine serum. Membranes were prepared as follows: Cells were washed twice with ice-cold phosphate-buffered saline (pH 7.4) and then incubated for 5-10 minutes with ice-cold 10 mM Tris buffer (pH 7.4) containing 5 mM EDTA. Cells were removed from plates, homogenized, and centrifuged at 32,000×g for 20 minutes. The resulting supernatant was discarded, and the pellet resuspended by homogenization in 50 mM Tris buffer (pH 7.4) containing 1 mM EDTA and centrifuged at 32,000×g for 20 minutes. The resulting supernatant was discarded, and the pellet resuspended by homogenization in NK-1 binding assay buffer (50 mM Tris-HCL (pH 7.4), 3 mM MnCl2, 200 μg/ml BSA, 5 μg/ml chymostatin, 40 μg/ml bacitracin and 4 μg/ml leupeptin).
On the day of an experiment the membrane preparation was thawed, homogenized and diluted with NK-1 binding assay buffer to the appropriate concentration. […] Substance P, at a concentration of […], and concentrations of drugs ranging from 10000 to 0.01 nM. Samples were incubated for 30 min at 20° C. then filtered through GF/B glass fiber filters (pretreated with 1% polyethyleneimine and 0.3% Triton X-100) using a Brandel cell harvester. The filters were then washed with 10 ml ice cold 50 mM Tris-HCL (pH 7.4) containing 3 mM MgCl2. […] The amount of radioligand bound in the presence and absence of competitor was analyzed by plotting (-)log drug concentration versus the amount of radioligand specifically bound. The midpoint of the displacement curve (IC50, nM), signifies the potency.

[2] = target: T2, human serotonin transporters (Homo sapiens, UniProt P31645); experiment: Serotonin transporter binding assay ([3H]-citalopram competition, HEK-hSERT cell membranes)
T2 construct: expressed in transfected cells
Experimental: Serotonin transporter binding assay. HEK-293 cells that stably express human serotonin transporters (HEK-hSERT cells) were grown at 37° C. in 5% CO2 as a monolayer in medium consisting of EMEM supplemented with 10% fetal bovine serum and G418 sulfate (500 μg/ml). To prepare membranes for radioligand binding experiments, cells were rinsed twice with phosphate-buffered saline (138 mM NaCl, 4.1 mM KCl, 5.1 mM Na2PO4, 1.5 mM KH2PO4, 11.1 mM glucose, pH 7.4). Cells were transferred from plates to polypropylene tubes (16×100 mm), centrifuged at 1,200×g for 5 min and were frozen at −80° C. until assay. Following centrifugation, pellets were resuspended by homogenization in buffer consisting of 50 mM Tris (pH 7.7 at 25° C.), 120 mM NaCl and 5 mM KCl and then centrifuged at 32,000×g for 10 min. Following centrifugation, supernatants were discarded and pellets were resuspended in buffer consisting of 50 mM Tris (pH 7.4 at 25° C.), 150 mM NaCl and 5 mM KCl. Membrane homogenates (200 μl/plate) were incubated with 1 nM [^3H]-citalopram (specific activity=85 Ci/mmol) and increasing concentrations of test compounds for 1 hr at 25° C. in a total volume of 250 μl. The assay buffer consisted of 50 mM Tris (pH 7.4 at 25° C.), 120 mM NaCl and 5 mM KCl (pH 7.4 with conc. HCl). Plates were incubated for 1 hr at 25° C., then filtered through 0.5% PEI treated Whatman GF/B filters using a Brandel cell harvester. Filters were washed three times with 3 ml of ice-cold tris wash buffer. Non-specific binding was defined with 10 μM fluoxetine. Amount of radioligand bound in the presence and absence of competitor was analyzed by plotting (-)log drug concentration versus the amount of radioligand specifically bound. The midpoint of the displacement curve (IC50, nM), signifies the potency. Ki values can be calculated using the method of Cheng and Prusoff (Cheng and Prusoff, BiochemicalPharmacology, Vol 22, pp. 3099-3108, Pergamon Press (1973)).

[3] = Table 2, HEK-hSERT membranes, [3H]-citalopram displacement, read-out: SERT IC50
[4] = Table 1, HEK-hSERT membranes, [3H]-citalopram displacement, read-out: SERT IC50

T1 sequence (P25103 whole entry): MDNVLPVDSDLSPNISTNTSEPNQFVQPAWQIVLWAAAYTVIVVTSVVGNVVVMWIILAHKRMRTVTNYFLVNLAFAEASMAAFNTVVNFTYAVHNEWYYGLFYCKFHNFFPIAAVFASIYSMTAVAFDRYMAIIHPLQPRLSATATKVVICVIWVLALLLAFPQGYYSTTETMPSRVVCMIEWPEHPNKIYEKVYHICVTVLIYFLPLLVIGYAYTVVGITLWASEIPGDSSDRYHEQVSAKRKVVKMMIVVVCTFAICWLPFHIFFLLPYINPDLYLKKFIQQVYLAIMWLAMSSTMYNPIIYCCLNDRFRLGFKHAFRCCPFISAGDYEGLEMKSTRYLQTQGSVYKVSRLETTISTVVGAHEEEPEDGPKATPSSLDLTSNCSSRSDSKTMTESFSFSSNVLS
T2 sequence (P31645 whole entry): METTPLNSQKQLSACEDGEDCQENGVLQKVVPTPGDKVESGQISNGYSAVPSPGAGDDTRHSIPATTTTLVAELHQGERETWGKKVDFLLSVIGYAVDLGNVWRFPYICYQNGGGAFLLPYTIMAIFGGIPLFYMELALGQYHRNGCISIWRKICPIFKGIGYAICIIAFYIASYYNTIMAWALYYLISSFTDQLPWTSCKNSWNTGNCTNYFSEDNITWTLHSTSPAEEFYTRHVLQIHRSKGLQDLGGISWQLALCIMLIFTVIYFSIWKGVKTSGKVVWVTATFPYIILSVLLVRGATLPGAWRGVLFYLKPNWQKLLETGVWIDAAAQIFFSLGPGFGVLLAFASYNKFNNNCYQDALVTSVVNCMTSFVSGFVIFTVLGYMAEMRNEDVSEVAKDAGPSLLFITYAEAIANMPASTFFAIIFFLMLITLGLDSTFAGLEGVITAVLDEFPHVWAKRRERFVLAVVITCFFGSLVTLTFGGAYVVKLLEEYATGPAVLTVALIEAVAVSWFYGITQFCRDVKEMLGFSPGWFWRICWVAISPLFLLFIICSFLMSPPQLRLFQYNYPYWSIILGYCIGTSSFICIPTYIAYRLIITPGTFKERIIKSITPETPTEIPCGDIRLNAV

| SMILES | IC50 ([1]; Table 2) [nM] | IC50 [2, 3] [nM] | IC50 ([1]; Table 1) [nM] | IC50 [2, 4] [nM] | IC50 [2] [nM] |
| --- | --- | --- | --- | --- | --- |
| COc1ccc(C)cc1-c1cc(COCC2(c3ccccc3)CCNCC2)cc(C(F)(F)F)c1 | > 300 | 0.01 to 100 |  |  |  |
| Oc1cc(COCC2(c3ccccc3)CCNCC2)cc(-c2ccc(F)cc2)c1 | > 300 | 0.01 to 100 |  |  |  |
| FC(F)(F)c1cc(COCC2(c3ccccc3)CCNCC2)cc(-c2c(Cl)cccc2Cl)c1 |  |  | 100 to 300 | 0.01 to 100 |  |
| COc1ccc(-c2ccncc2)cc1COCC1(c2ccccc2)CCNCC1 |  |  | > 300 | 0.01 to 100 |  |
| COc1cc(-c2cc(COCC3(c4ccccc4)CCN(C)CC3)cc(C(F)(F)F)c2)ccc1C#N | 0.01 to 100 |  |  |  | 0.01 to 100 |
| FC(F)(F)c1cc(COCC2(c3ccccc3)CCNCC2)cc(-c2c(C(F)(F)F)cccc2C(F)(F)F)c1 | 0.01 to 100 | 0.01 to 100 |  |  |  |
| Cn1nnc(-c2cc(COCC3(c4ccccc4)CCNCC3)cc(C(F)(F)F)c2)n1 |  |  | 0.01 to 100 | 0.01 to 100 |  |
| COC(=O)c1cc(-c2cc(COCC3(c4ccccc4)CCNCC3)cc(C(F)(F)F)c2)cc([N+](=O)[O-])c1 | > 300 | 0.01 to 100 |  |  |  |
| CCc1ccccc1-c1cc(COCC2(c3ccccc3)CCNCC2)cc(C(F)(F)F)c1 | > 300 | 0.01 to 100 |  |  |  |
| FC(F)(F)c1cccc(-c2cc(COCC3(c4ccccc4)CCNCC3)cc(C(F)(F)F)c2)c1 |  |  | 0.01 to 100 | 0.01 to 100 |  |
| CN1CCC(COCc2cc(-c3cc(F)c(C#N)cc3F)cc(C(F)(F)F)c2)(c2ccccc2)CC1 | 0.01 to 100 |  |  |  | 0.01 to 100 |
| Cc1cccc(C)c1-c1cc(COCC2(c3ccccc3)CCNCC2)cc(C(F)(F)F)c1 |  |  | 100 to 300 | 100 to 300 |  |
| FC(F)(F)c1cc(COCC2(c3ccccc3)CCNCC2)cc(-c2nnn[nH]2)c1 |  |  | 100 to 300 | 0.01 to 100 |  |
| FC(F)(F)c1cc(COCC2(c3ccccc3)CCNCC2)cc(-c2ccco2)c1 |  |  | 0.01 to 100 | 0.01 to 100 |  |
| COc1cccc(C2(COCc3cc(-c4ccc(C#N)cc4)cc(C(F)(F)F)c3)CCN(C)CC2)c1 | 0.01 to 100 |  |  |  | 0.01 to 100 |
| N#Cc1ccc(-c2cc(COCC3(c4cccc(Br)c4)CCNCC3)cc(C(F)(F)F)c2)cc1 | 0.01 to 100 | 0.01 to 100 |  |  |  |
| Cc1cc(-c2cc(COCC3(c4ccccc4)CCNCC3)cc(C(F)(F)F)c2)cc(C)c1O | > 300 | 0.01 to 100 |  |  |  |
| FC(F)(F)c1cc(COCC2(c3ccccc3)CCNCC2)cc(-c2ccc(N3CCOCC3)nc2)c1 |  |  | > 300 | 0.01 to 100 |  |
| CN1CCC(COCc2cc(-c3ccc(C#N)cc3)cc(C(F)(F)F)c2)(c2cccc(C#N)c2)CC1 | 0.01 to 100 |  |  |  | 0.01 to 100 |
| N#Cc1ccc(-c2cc(COCC3(c4cccc(Cl)c4)CCNCC3)cc(C(F)(F)F)c2)cc1 | 0.01 to 100 | 0.01 to 100 |  |  |  |
| COc1c(F)cc(-c2cc(COCC3(c4ccccc4)CCNCC3)cc(C(F)(F)F)c2)cc1F | 0.01 to 100 | 0.01 to 100 |  |  |  |
| CCCCCc1ccc(-c2cc(COCC3(c4ccccc4)CCNCC3)cc(C(F)(F)F)c2)cc1 |  |  | 0.01 to 100 | 100 to 300 |  |
| N#Cc1ccc(-c2cc(COCC3(c4ccccc4)CCNCC3)cc(C(F)(F)F)c2)cn1 |  |  | 0.01 to 100 | 0.01 to 100 |  |
| CCOc1ccc(-c2cc(COCC3(c4ccccc4)CCNCC3)cc(C(F)(F)F)c2)cc1 |  |  | 0.01 to 100 | 0.01 to 100 |  |
| FC(F)(F)c1cc(COCC2(c3ccccc3)CCNCC2)cc(-c2ccccc2)c1 |  |  | 0.01 to 100 | 0.01 to 100 |  |
| Cn1nnnc1-c1cc(COCC2(c3ccccc3)CCNCC2)cc(C(F)(F)F)c1 |  |  | 0.01 to 100 | 0.01 to 100 |  |

| SMILES | IC50 ([1]; Table 2) [nM] | IC50 [2, 3] [nM] | IC50 ([1]; Table 1) [nM] | IC50 [2, 4] [nM] | IC50 [2] [nM] |
| --- | --- | --- | --- | --- | --- |
| CN1CCC(COCc2cc(-c3cc(F)c(C#N)c(F)c3)cc(C(F)(F)F)c2)(c2ccccc2)CC1 | 0.01 to 100 |  |  |  | 0.01 to 100 |
| N#Cc1ccc(-c2cc(COCC3(c4ccccc4)CCNCC3)cc(C(=O)N3CCCCC3)c2)cc1 | > 300 | 0.01 to 100 |  |  |  |
| FC(F)(F)c1cc(COCC2(c3ccccc3)CCNCC2)cc(-c2cccc3c2oc2ccccc23)c1 |  |  | > 300 | 0.01 to 100 |  |
| FC(F)(F)Oc1cccc(-c2cc(COCC3(c4ccccc4)CCNCC3)cc(C(F)(F)F)c2)c1 | > 300 | 0.01 to 100 |  |  |  |
| Cn1cncc1-c1cc(COCC2(c3ccccc3)CCNCC2)cc(C(F)(F)F)c1 |  |  | 100 to 300 | 0.01 to 100 |  |
| Cc1ccc(-c2cc(COCC3(c4ccccc4)CCNCC3)cc(C(F)(F)F)c2)cc1[N+](=O)[O-] |  |  | 0.01 to 100 | 0.01 to 100 |  |
| COc1ccc(-c2cc(COCC3(c4ccccc4)CCN(C)CC3)cc(C(F)(F)F)c2)cc1F | 0.01 to 100 |  |  |  | 0.01 to 100 |
| Cc1cc(C)c(-c2cc(COCC3(c4ccccc4)CCNCC3)cc(C(F)(F)F)c2)c(C)c1 |  |  | > 300 | > 300 |  |
| Fc1ccc(-c2cc(COCC3(c4ccccc4)CCNCC3)cc(C(F)(F)F)c2)cc1F |  |  | 0.01 to 100 | 0.01 to 100 |  |
| FC(F)(F)c1cc(COCC2(c3ccccc3)CCNCC2)cc(-c2ccccc2C(F)(F)F)c1 |  |  | > 300 | 100 to 300 |  |
| CCOC(=O)c1ccccc1-c1cc(COCC2(c3ccccc3)CCNCC2)cc(C(F)(F)F)c1 | > 300 | 100 to 300 |  |  |  |
| COc1ccc(-c2cc(COCC3(c4ccccc4)CCNCC3)cc(C(F)(F)F)c2)cc1C | 0.01 to 100 | 0.01 to 100 |  |  |  |
| FC(F)(F)c1cc(COCC2(c3ccccc3)CCNCC2)cc(-n2nnnc2C(F)(F)F)c1 |  |  | > 300 | 0.01 to 100 |  |
| N#Cc1c(F)cc(-c2cc(COCC3(c4ccccc4)CCNCC3)cc(C(F)(F)F)c2)cc1F | 0.01 to 100 | 0.01 to 100 |  |  |  |
| CN1CCC(COCc2cc(-c3ccc(C#N)c(Cl)c3)cc(C(F)(F)F)c2)(c2ccccc2)CC1 | 0.01 to 100 |  |  |  | 0.01 to 100 |
| Cc1cc(-c2cc(COCC3(c4ccccc4)CCN(C)CC3)cc(C(F)(F)F)c2)ccc1C#N | 0.01 to 100 |  |  |  | 0.01 to 100 |
| Cc1cccc(-c2cc(COCC3(c4ccccc4)CCNCC3)cc(C(F)(F)F)c2)c1C | 100 to 300 | 0.01 to 100 |  |  |  |
| FC(F)(F)c1cc(COCC2(c3ccccc3)CCNCC2)cc(-c2ccncc2Cl)c1 |  |  | 0.01 to 100 | 0.01 to 100 |  |
| O=C(OCc1ccccc1)c1ccc(-c2cc(COCC3(c4ccccc4)CCNCC3)cc(C(F)(F)F)c2)cc1 | 0.01 to 100 | 0.01 to 100 |  |  |  |
| CC(=O)c1ccccc1-c1cc(COCC2(c3ccccc3)CCNCC2)cc(C(F)(F)F)c1 | > 300 | 100 to 300 |  |  |  |
| CN1CCC(COCc2cc(-c3ccc(C#N)cc3)cc(C(F)(F)F)c2)(c2ccc(Br)cc2)CC1 | 0.01 to 100 |  |  |  | 0.01 to 100 |
| CN1CCC(COCc2cc(-c3ccc(C#N)cc3)cc(C(F)(F)F)c2)(c2cccc(Cl)c2)CC1 | 0.01 to 100 |  |  |  | 0.01 to 100 |
| N#Cc1ccc(-c2cc(COCC3(c4ccc(F)cc4-c4ccccc4)CCNCC3)cc(C(F)(F)F)c2)cc1 | 0.01 to 100 | 100 to 300 |  |  |  |
| COc1c(C)cc(-c2cc(COCC3(c4ccccc4)CCNCC3)cc(C(F)(F)F)c2)cc1C |  |  | 100 to 300 | 100 to 300 |  |
| CN1CCC(COCc2cc(-c3ccc(C#N)cc3)cc(C(F)(F)F)c2)(c2ccccc2F)CC1 | 0.01 to 100 |  |  |  | 0.01 to 100 |
| CN1CCC(COCc2cc(-c3ccc(C#N)cc3)cc(C(F)(F)F)c2)(c2ccccc2)CC1 |  |  | 0.01 to 100 |  | 0.01 to 100 |
